Source: patent US20220411422A1, “ERBB RECEPTOR INHIBITORS” (Dizal (Jiangsu) Pharmaceutical Co., Ltd., priority 2018, published 2022)

Columns and labels:
pHER2 in tumor tissue = molecular target: T1, pHER2 in tumor tissue (Homo sapiens, UniProt P04626); test: PK/PD relationship in BT474cl SC model; format: in vivo, mouse
T1 construct: The SC, BM and LM models with HER2 overexpression; from tissue; host or cells: BT474cl subcutaneous xenograft tumour in mice
Protocol: The SC, BM and LM models with HER2 overexpression were treated with the Compound 6 at dosages of 25 mg/kg, 50 mg/kg, 100 mg/kg and 150 mg/kg. […] Moreover, the Compound 6 at dosages of 6.25 mg/kg, Capecitabine (400 mg/kg), T-DM1 (15 mg/kg), Compound 6 (6.25 mg/kg) in combination with Capecitabine (400 mg/kg) or T-DM1 (15 mg/kg) were used to treat the SC, and BM models with HER2 overexpression to check the tumor regression effect of Compound 6 in combination with other anti-cancer agent. […] Moreover, the PK and PD of Compound 6 in BT474cl SC model were tested.

[1] = system: Human Pgp/BCRP transporter; test: Human Pgp/BCRP transporter substrate assessment; format: in vitro ADME
[2] = Clinical study on safety in patients with HER2+ MBC; format: in vivo, human
Text: […] All patients had prior anti-HER2 antibody and chemotherapy treatment. Majority of patients ([…]) also had prior anti-HER2 small molecule treatment.

[3] = 100 mg (N = 4), CTCAE Grade All

T1 sequence (P04626 23-1255): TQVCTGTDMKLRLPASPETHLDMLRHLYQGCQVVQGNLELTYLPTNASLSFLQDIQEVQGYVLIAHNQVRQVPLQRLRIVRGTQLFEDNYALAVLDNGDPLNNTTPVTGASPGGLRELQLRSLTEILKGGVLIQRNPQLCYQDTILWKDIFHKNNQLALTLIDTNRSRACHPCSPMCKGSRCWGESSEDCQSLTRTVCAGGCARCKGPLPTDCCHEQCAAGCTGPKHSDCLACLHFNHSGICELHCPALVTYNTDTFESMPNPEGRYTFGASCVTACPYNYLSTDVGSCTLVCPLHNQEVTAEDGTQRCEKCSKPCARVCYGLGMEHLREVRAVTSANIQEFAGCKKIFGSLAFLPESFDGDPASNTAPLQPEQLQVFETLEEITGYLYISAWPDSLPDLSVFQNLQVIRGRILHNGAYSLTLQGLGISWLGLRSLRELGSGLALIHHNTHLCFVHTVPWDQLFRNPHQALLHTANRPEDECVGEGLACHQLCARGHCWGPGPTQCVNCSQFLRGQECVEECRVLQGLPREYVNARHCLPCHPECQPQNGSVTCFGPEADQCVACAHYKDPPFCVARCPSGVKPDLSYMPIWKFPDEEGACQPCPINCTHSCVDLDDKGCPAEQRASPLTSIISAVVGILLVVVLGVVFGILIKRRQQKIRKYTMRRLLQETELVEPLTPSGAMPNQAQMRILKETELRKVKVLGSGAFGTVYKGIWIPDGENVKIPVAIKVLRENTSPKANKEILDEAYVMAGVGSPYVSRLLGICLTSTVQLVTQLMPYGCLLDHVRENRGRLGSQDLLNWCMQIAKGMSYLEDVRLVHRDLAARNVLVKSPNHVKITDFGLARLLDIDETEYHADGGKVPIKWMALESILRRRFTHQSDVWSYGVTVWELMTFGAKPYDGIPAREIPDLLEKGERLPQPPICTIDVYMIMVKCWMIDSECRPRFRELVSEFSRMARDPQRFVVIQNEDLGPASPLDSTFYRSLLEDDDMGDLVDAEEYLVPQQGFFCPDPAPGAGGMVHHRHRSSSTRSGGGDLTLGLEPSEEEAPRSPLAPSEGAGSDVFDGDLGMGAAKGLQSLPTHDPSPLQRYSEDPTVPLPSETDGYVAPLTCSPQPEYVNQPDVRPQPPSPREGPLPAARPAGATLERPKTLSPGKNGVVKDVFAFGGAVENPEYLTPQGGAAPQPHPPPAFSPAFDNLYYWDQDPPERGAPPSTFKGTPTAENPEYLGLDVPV

COc1cc(O[C@H]2CCN(C)CC2(F)F)c2c(Nc3ccc(Oc4ccn5ncnc5c4)c(C)c3)ncnc2c1 (single isomer, unassigned) [Compound 6]
No: Human Pgp/BCRP transporter substrate [1]
1: TEAE Blood bilirubin increased, patients ([2]; 25 mg (N = 1), CTCAE Grade All) | TEAE Blood bilirubin unconjugated increased, patients ([2]; 25 mg (N = 1), CTCAE Grade All) | TEAE Anaemia, patients ([2]; 50 mg (N = 4), CTCAE Grade All) | TEAE Aspartate aminotransferase increased, patients ([2]; 50 mg (N = 4), CTCAE Grade All) | TEAE Blood creatinine increased, patients ([2]; 50 mg (N = 4), CTCAE Grade All) | TEAE Haemoglobin decreased, patients ([2]; 50 mg (N = 4), CTCAE Grade All) | TEAE Headache, patients ([2]; 50 mg (N = 4), CTCAE Grade All) | TEAE Pain, patients ([2]; 50 mg (N = 4), CTCAE Grade All) | TEAE Platelet count decreased, patients ([2]; 50 mg (N = 4), CTCAE Grade All) | TEAE Proteinuria, patients ([2]; 50 mg (N = 4), CTCAE Grade All) | TEAE Fatigue, patients [2, 3] | TEAE Platelet count decreased, patients [2, 3] | TEAE Vomiting, patients [2, 3]
positive correlation: relationship between plasma concentration and pHER2 inhibition in tumor tissue (pHER2 in tumor tissue)
0: TEAE Anaemia, patients ([2]; 25 mg (N = 1), CTCAE Grade All) | TEAE Aspartate aminotransferase increased, patients ([2]; 25 mg (N = 1), CTCAE Grade All) | TEAE Bilirubin conjugated increased, patients ([2]; 25 mg (N = 1), CTCAE Grade All) | TEAE Blood creatinine increased, patients ([2]; 25 mg (N = 1), CTCAE Grade All) | TEAE Fatigue, patients ([2]; 25 mg (N = 1), CTCAE Grade All) | TEAE Haemoglobin decreased, patients ([2]; 25 mg (N = 1), CTCAE Grade All) | TEAE Headache, patients ([2]; 25 mg (N = 1), CTCAE Grade All) | TEAE Lipase increased, patients ([2]; 25 mg (N = 1), CTCAE Grade All) | TEAE Pain, patients ([2]; 25 mg (N = 1), CTCAE Grade All) | TEAE Platelet count decreased, patients ([2]; 25 mg (N = 1), CTCAE Grade All) | TEAE Proteinuria, patients ([2]; 25 mg (N = 1), CTCAE Grade All) | TEAE Vomiting, patients ([2]; 25 mg (N = 1), CTCAE Grade All) | TEAE Anaemia, patients ([2]; 25 mg (N = 1), CTCAE Grade ≥3) | TEAE Aspartate aminotransferase increased, patients ([2]; 25 mg (N = 1), CTCAE Grade ≥3) | TEAE Bilirubin conjugated increased, patients ([2]; 25 mg (N = 1), CTCAE Grade ≥3) | TEAE Blood bilirubin increased, patients ([2]; 25 mg (N = 1), CTCAE Grade ≥3) | TEAE Blood bilirubin unconjugated increased, patients ([2]; 25 mg (N = 1), CTCAE Grade ≥3) | TEAE Blood creatinine increased, patients ([2]; 25 mg (N = 1), CTCAE Grade ≥3) | TEAE Fatigue, patients ([2]; 25 mg (N = 1), CTCAE Grade ≥3) | TEAE Haemoglobin decreased, patients ([2]; 25 mg (N = 1), CTCAE Grade ≥3) | TEAE Headache, patients ([2]; 25 mg (N = 1), CTCAE Grade ≥3) | TEAE Lipase increased, patients ([2]; 25 mg (N = 1), CTCAE Grade ≥3) | TEAE Pain, patients ([2]; 25 mg (N = 1), CTCAE Grade ≥3) | TEAE Platelet count decreased, patients ([2]; 25 mg (N = 1), CTCAE Grade ≥3) | TEAE Proteinuria, patients ([2]; 25 mg (N = 1), CTCAE Grade ≥3) | TEAE Vomiting, patients ([2]; 25 mg (N = 1), CTCAE Grade ≥3) | TEAE Bilirubin conjugated increased, patients ([2]; 50 mg (N = 4), CTCAE Grade All) | TEAE Blood bilirubin increased, patients ([2]; 50 mg (N = 4), CTCAE Grade All) | TEAE Blood bilirubin unconjugated increased, patients ([2]; 50 mg (N = 4), CTCAE Grade All) | TEAE Fatigue, patients ([2]; 50 mg (N = 4), CTCAE Grade All) | TEAE Vomiting, patients ([2]; 50 mg (N = 4), CTCAE Grade All) | TEAE Anaemia, patients ([2]; 50 mg (N = 4), CTCAE Grade ≥3) | TEAE Aspartate aminotransferase increased, patients ([2]; 50 mg (N = 4), CTCAE Grade ≥3) | TEAE Bilirubin conjugated increased, patients ([2]; 50 mg (N = 4), CTCAE Grade ≥3) | TEAE Blood bilirubin increased, patients ([2]; 50 mg (N = 4), CTCAE Grade ≥3) | TEAE Blood bilirubin unconjugated increased, patients ([2]; 50 mg (N = 4), CTCAE Grade ≥3) | TEAE Blood creatinine increased, patients ([2]; 50 mg (N = 4), CTCAE Grade ≥3) | TEAE Fatigue, patients ([2]; 50 mg (N = 4), CTCAE Grade ≥3) | TEAE Haemoglobin decreased, patients ([2]; 50 mg (N = 4), CTCAE Grade ≥3) | TEAE Headache, patients ([2]; 50 mg (N = 4), CTCAE Grade ≥3) | TEAE Lipase increased, patients ([2]; 50 mg (N = 4), CTCAE Grade ≥3) | TEAE Pain, patients ([2]; 50 mg (N = 4), CTCAE Grade ≥3) | TEAE Platelet count decreased, patients ([2]; 50 mg (N = 4), CTCAE Grade ≥3) | TEAE Proteinuria, patients ([2]; 50 mg (N = 4), CTCAE Grade ≥3) | TEAE Vomiting, patients ([2]; 50 mg (N = 4), CTCAE Grade ≥3) | TEAE Aspartate aminotransferase increased, patients [2, 3] | TEAE Bilirubin conjugated increased, patients [2, 3] | TEAE Blood bilirubin increased, patients [2, 3] | TEAE Blood bilirubin unconjugated increased, patients [2, 3] | TEAE Blood creatinine increased, patients [2, 3] | TEAE Haemoglobin decreased, patients [2, 3] | TEAE Lipase increased, patients [2, 3] | TEAE Pain, patients [2, 3] | TEAE Proteinuria, patients [2, 3]
2: TEAE Lipase increased, patients ([2]; 50 mg (N = 4), CTCAE Grade All) | TEAE Anaemia, patients [2, 3] | TEAE Headache, patients [2, 3]
